Measured values: patent US6815195B2, “5-substituted hydantoin racemase, DNA coding for the racemase, and processes for producing optically active amino acids” (Ajinomoto Co. Inc., priority 2000, dated 2004)
Entries after “also recorded” stand apart in the source; their conditions may differ.

Key:
[1] = test system: HRase; assay: Effect of various reagents such as enzyme inhibitors on HRase activity (residual activity); type: biochemical, Microbacterium liquefaciens AJ3912; settings: for effect of reagent on HRase activity (in words): purified HRase pre-incubated with reagent; for Residual Activity (%): relative to activity without reagent (100%), pre-incubation 0° C. 30 min pH 8.0, reaction pH 8.0, 30° C., 30 min, concentration in reaction: NEM 5 mM, CuSO4 2.5 mM, IAA 10 mM, EDTA 10 mM, Methanol 10% (v/v)
Description: (§1) Specifically, a reaction solution containing 120 mg/dl L- or D-benzyl hydantoin (BH), 50 mM dibasic potassium phosphate buffer (KPB) (pH 8.0), 5 mM dithiothreitol (DTT) and an HRase enzyme solution was incubated at 37° C. for 30 minutes, and the reaction was stopped by adding a 9-fold excess volume of 1.1 mM CuSO4 and 11.1 mM H3PO4 solution. The precipitates were removed by centrifugation at 20,000 g×10 minutes, and the amount of racemized BH was quantitatively determined by HPLC to estimate the racemization activity. The enzyme activity causing racemization of 1 μmol BH per minute under these conditions was defined as 1 U of the enzyme activity.
1.5 μg/ml purified HRase was pre-incubated at 0° C. for 30 minutes at pH 8.0 with 25 mM DTT, 25 mM N-ethylmaleimide (NEM), 12.5 mM CuSO4, 50 mM monoiodoacetic acid (IAA), 50 mM EDTA or 50% (v/v) methanol. As the enzyme source, each of these mixtures was reacted at pH 8.0, at 30° C. for 30 minutes to measure the residual activity, and the susceptibility of the HRase to each inhibitor was determined. The concentration of each of the enzyme and the inhibitor during the reaction was about ⅕ relative to the concentration during the pre-incubation.
The residual activity was shown as relative activity to the activity (100%) in the absence of the reagent (see Table 2).

[2] = test system: HRase; assay: Racemization of optically active 5-substituted hydantoin compounds other than BH (D-amino acid formation with AJ 11220 and HRase, TLC); type: biochemical, Microbacterium liquefaciens AJ3912; settings: 1 g/dl substrate, 1.3 μg/ml purified HRase, 2 g/dl wet AJ 11220, 37° C., 22 hours, optical resolution TLC
Description: The ability of the present HRase to catalyze racemization of optically active 5-substituted hydantoin compounds other than BH was examined. The formation of D-amino acid from L-5-substituted hydantoin by a combination of Pseudomonas sp. AJ 11220 and HRase was confirmed in the same manner as in Example 8.
1 g/dl 5-substituted hydantoin of various kinds, together with 1.3 μg/ml purified HRase, 0.1 M KPB (pH 8.0), 0.5 mM CoCl2 and 2 g/dl wet AJ 11220, was subjected to stationary reaction at 37° C. for 22 hours. Each hydantoin consisted of D- and L-isomers as the substrate, and it was confirmed that D-amino acid was formed from the D-isomer substrate in the absence of HRase, and also that D-amino acid was not formed from the L-isomer substrate in the absence of HRase, and then it was judged that when D-amino acid was formed from the L-isomer substrate in the presence of HRase, the substrate was recognized. The formation of D-amino acid was qualitatively estimated by development with optical resolution TLC (MERCK, HPTLC CHIR) with methanol:H2O:acetonitrile=1:1:4.

[3] = test system: HRase; assay: Racemization of BH by purified HRase (substrate recognition); type: biochemical, Microbacterium liquefaciens AJ3912; settings: 0.3 mg/ml purified HRase, 37° C., pH 8.0
Description: (§2) A reaction solution containing 0.3 mg/ml purified HRase, 0.12 g/dl D- or L-BH, 50 mM KPB (pH 8.0) and 5 mM DTT was incubated at 37° C. and sampled with time to quantify the amount of BH by HPLC. As the control, the same experiment was performed in an experimental group not containing the enzyme, to quantify the spontaneous racemization of BH.

[4] = Production of D-Phe from DL-BH or L-BH by a combination of Agrobacterium sp. AJ11220 and HRase; type: biochemical; settings: reaction 30 hours
Description: 0.5 g/dl (26 mM) DL-BH or L-BH, together with 0.84 μg/ml purified HRase, 0.1 M KPB (pH 8.0), 0.5 mM CoCl2 and 2 g/dl wet AJ11220 microorganism, was subjected to stationary reaction at 30° C. Oxygen was previously removed from the reaction solution by replacing it by nitrogen. The reaction solution was sampled with time and analyzed by HPLC to quantify the formed D-Phe.

[5] = HRase activity measurement: racemization of BH quantified by HPLC (specific activity of purified HRase); type: biochemical, Microbacterium liquefaciens AJ3912
Description: Measurement of the HRase activity of the HRase of the present invention can be carried out by measuring a change in the optical rotation as the degree of racemization of the optically active D- or L-5-substituted hydantoin compound as the substrate or by high performance liquid chromatography (HPLC) using an optical resolution column.
as §1
The quantitative analysis of optically active BH by analysis in HPLC was conducted by use of Daicel Chemical CHIRALPAK WH 0.46 cmφ×25 cm. The analysis conditions are as follows:
as §2

[6] = calculated from initial reaction rate, 37° C., pH 8.0, 5 mM DTT

Molecule: O=C(O)CN(CCN(CC(=O)O)CC(=O)O)CC(=O)O [EDTA, ethylenediaminetetraacetic acid]
- effect of reagent on HRase activity (in words) [1]: no significant inhibitory effect; also recorded: minimally inhibited
- Residual Activity (%) [1]: 86%

Molecule: CCN1C(=O)C=CC1=O [NEM, N-ethylmaleimide]
- effect of reagent on HRase activity (in words) [1]: significantly inhibited; also recorded: strongly inhibited
- Residual Activity (%) [1]: 0%

Molecule: O=C1NC(=O)[C@H](Cc2ccc(O)cc2)N1 [L-5-(p-hydroxybenzyl) hydantoin]
- racemization by HRase (D-amino acid formed from L-isomer substrate, qualitative) [2]: racemized

Molecule: O=C1NC(=O)[C@@H](Cc2ccccc2)N1 [D-BH, D-benzyl hydantoin]
- recognition as substrate by HRase [3]: recognized

Molecule: CO [Methanol, methanol]
- effect of reagent on HRase activity (in words) [1]: did not influence
- Residual Activity (%) [1]: 99%

Molecule: CC(C)C[C@@H]1NC(=O)NC1=O [L-5-isobutyl hydantoin]
- racemization by HRase (D-amino acid formed from L-isomer substrate, qualitative) [2]: racemized

Molecule: O=C(O)CI [IAA, monoiodoacetic acid]
- effect of reagent on HRase activity (in words) [1]: strongly inhibited
- effect of reagent on HRase activity (in words) ([1]; listed as iodoacetic acid): significantly inhibited
- Residual Activity (%) [1]: 0%

Molecule: O=C1NC(=O)[C@H](Cc2ccccc2)N1 [L-BH, L-benzyl hydantoin]
- recognition as substrate by HRase [3]: recognized

Molecule: O=C1NC(=O)[C@H](Cc2c[nH]c3ccccc23)N1 [L-5-indolyl methyl hydantoin]
- racemization by HRase (D-amino acid formed from L-isomer substrate, qualitative) [2]: racemized

Molecule: O=S(=O)([O-])[O-].[Cu+2] [CuSO4]
- effect of reagent on HRase activity (in words) ([1]; listed as Cu^2+): significantly inhibited
- effect of reagent on HRase activity (in words) ([1]; listed as copper ion): strongly inhibited
- Residual Activity (%) [1]: 0%

Molecule: O[C@H](CS)[C@H](O)CS (racemic) [DTT, dithiothreitol]
- effect of reagent on HRase activity (in words) [1]: activated

B1: HRase: 5-substituted hydantoin racemase from Microbacterium liquefaciens AJ3912, amino acid sequence SEQ ID NO:2 (protein)
chain: MRIHVINPNSSVDLTDAVAEAARSVVSPGTTITAVNPSKGPTVIEGSYDEVLATYHLVEEVRRAEREDRPDAYVIACFGDPGLDAVRELTDRPVVGIAEAAIQMTSFVAASFSIVSILPRVRKHLHELVHRAGATDRLASLKLPDLGVLAFHEDEAAAFETLRRVAGEAVREDGAESIVLGCAGMAGFARQLSEELGVPVIDAVEAACRVAESLVALGYRTSKANTYQAPTEKQYL
- amount of D-Phe formed from DL-BH ([4]; HRase added (0.84 μg/ml), 26 mM DL-BH, 2 g/dl wet AJ11220, 30° C.): 24.6 mM
- amount of D-Phe formed from L-BH ([4]; HRase added (0.84 μg/ml), 26 mM L-BH, 2 g/dl wet AJ11220, 30° C.): 24.6 mM
- molar yield of D-Phe from DL-BH ([4]; HRase added, 26 mM DL-BH): 94%
- molar yield of D-Phe from L-BH ([4]; HRase added, 26 mM L-BH): 94%
- specific activity of the purified HRase ([5]; after purification (Example 1), 1 U = racemization of 1 μmol BH per minute): 79 U/mg
- specific activity of the purified HRase, formation of D-BH from L-BH [5, 6]: 100 U/mg
- specific activity of the purified HRase, formation of L-BH from D-BH [5, 6]: 79 U/mg
